Data published in patent US9988400B2 (Genentech, Inc., priority 2013, dated 2018).

target: T1, HEK cells stably transfected with tetracycline inducible hNR1 and hNR2A (Homo sapiens, UniProt Q05586+Q12879); assay: Assay 1: Cell-Based Assay, cytosolic calcium response to positive allosteric modulators (with 30 μM glycine and 300 nM L-glutamate, EC30); conditions: Table 3; cytosolic calcium response, with 30 μM glycine and 300 nM L-glutamate (EC30); — = no plateau was reached
T1 construct: expressed in transfected cells; host or cells: HEK cells, stably transfected, tetracycline/doxycycline inducible
Outline: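 Cells induced 24 h with 7.5 μg mL^−1 doxycycline plus 500 μM (+)-ketamine, loaded 60 min at 37 °C with calcium dye in Mg-free HBSS (1.8 mM Ca, probenecid, 10 μM (+)-ketamine, pH 7.15). Peak RFU over 5 min after compound addition, scaled to 100 μM L-glutamate (100%) and 0 μM (0%); four-parameter Hill fit for EC50, max % if no plateau.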

T1 sequence (Q12879 23-1464, other chains not shown): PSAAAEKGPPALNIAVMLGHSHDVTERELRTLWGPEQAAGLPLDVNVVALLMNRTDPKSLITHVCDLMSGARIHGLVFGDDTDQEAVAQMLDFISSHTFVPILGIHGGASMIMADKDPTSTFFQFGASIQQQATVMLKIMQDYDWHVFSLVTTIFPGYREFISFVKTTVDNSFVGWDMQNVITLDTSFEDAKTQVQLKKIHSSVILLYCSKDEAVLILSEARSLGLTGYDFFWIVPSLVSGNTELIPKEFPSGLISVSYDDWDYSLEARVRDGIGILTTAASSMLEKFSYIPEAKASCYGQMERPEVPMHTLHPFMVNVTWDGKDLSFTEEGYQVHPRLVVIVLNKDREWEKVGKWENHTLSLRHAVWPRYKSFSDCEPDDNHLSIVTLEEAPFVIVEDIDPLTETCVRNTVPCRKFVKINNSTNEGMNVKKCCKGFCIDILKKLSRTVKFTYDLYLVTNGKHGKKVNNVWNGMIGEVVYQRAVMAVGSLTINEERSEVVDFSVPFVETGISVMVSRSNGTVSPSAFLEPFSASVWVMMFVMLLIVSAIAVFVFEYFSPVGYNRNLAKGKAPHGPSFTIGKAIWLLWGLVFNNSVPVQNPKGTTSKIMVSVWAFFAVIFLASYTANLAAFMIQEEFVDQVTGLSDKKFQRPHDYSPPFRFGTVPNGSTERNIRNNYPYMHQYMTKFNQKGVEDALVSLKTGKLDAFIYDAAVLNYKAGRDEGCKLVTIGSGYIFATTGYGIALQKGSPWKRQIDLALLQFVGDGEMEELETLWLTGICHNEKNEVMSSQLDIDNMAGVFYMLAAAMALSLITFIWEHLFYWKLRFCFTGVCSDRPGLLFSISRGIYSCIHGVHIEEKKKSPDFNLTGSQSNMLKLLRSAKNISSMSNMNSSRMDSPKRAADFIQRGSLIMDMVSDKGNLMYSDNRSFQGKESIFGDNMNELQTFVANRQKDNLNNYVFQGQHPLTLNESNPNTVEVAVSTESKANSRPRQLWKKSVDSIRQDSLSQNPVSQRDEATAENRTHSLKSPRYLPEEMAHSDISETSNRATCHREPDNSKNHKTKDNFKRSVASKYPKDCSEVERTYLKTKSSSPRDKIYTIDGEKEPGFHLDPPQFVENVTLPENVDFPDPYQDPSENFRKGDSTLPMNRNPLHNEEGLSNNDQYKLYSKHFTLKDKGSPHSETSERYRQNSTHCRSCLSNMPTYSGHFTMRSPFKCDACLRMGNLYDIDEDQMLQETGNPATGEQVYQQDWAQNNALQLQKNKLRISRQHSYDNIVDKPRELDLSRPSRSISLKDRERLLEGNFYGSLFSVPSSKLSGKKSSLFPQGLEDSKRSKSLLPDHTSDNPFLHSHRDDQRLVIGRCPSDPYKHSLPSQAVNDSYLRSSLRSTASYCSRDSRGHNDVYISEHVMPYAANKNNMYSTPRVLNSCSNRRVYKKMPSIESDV

EC50 | Structure (SMILES)
182 nM | N#CC1CC1c1c(Cl)sc2nc(Cn3nc(Cl)cc3C(F)(F)F)cc(=O)n12 (stereo not shown) [compound 268, 2-[2-chloro-7-[[3-chloro-5-(trifluoromethyl)pyrazol-1-yl]methyl]-5-oxo-thiazolo[3,2-a]pyrimidin-3-yl]cyclopropanecarbonitrile]
3570 nM | Cc1sc2nc(Cc3nn(C)cc3Cl)cc(=O)n2c1C1CC1C#N (stereo not shown) [compound 271, 2-[7-[(4-chloro-1-methyl-pyrazol-3-yl)methyl]-2-methyl-5-oxo-thiazolo[3,2-a]pyrimidin-3-yl]cyclopropanecarbonitrile]
10600 nM | Cc1sc2nc(Cc3nc(C(F)(F)F)cn3C)cc(=O)n2c1C1CC1C#N (stereo not shown) [compound 278, 2-[2-methyl-7-[[1-methyl-4-(trifluoromethyl)imidazol-2-yl]methyl]-5-oxo-thiazolo[3,2-a]pyrimidin-3-yl]cyclopropanecarbonitrile]
1820 nM | CCN(Cc1cc(=O)n2c(/C=C/C#N)c(C)sc2n1)c1ccc(F)cc1 [compound 279, (E)-3-[7-[(N-ethyl-4-fluoro-anilino)methyl]-2-methyl-5-oxo-thiazolo[3,2-a]pyrimidin-3-yl]prop-2-enenitrile]
